Patent US4426382A, “4-Amino-6,7-dimethoxy-2-piperazinylquinazoline derivatives, their preparation and use” (Sankyo Company Limited, priority 1980, dated 1984)
Structures can show the parent of a compound that is named as a salt.

Columns and labels:
[1] = system: spontaneously hypertensive rats; test: antihypertensive activity: blood pressure after oral administration to conscious spontaneously hypertensive rats; assay type: in vivo; details: male spontaneously hypertensive rats
Procedure: The animals used in this test were 15 week old male spontaneously hypertensive rats. 3-5 rats were used to test each concentration of each compound. Each animal was treated as follows. […] A polyethylene cannula was then inserted into the abdominal aorta by the method of Weeks and Jones [J. R. Weeks and J. A. Jones, Proc. Soc. […] The other end of the cannula, leading out of the body, was fixed to the neck. One week after the operation, when the animal had recovered from post-operative invasion, this end of the cannula was connected to an apparatus to measure the blood pressure and heart beat directly without the need for any further anesthesia or restraint. The haemomanometer used was an improved type of that originated by Laffan et al. [P. J. Laffan, A. Peterson, S. W. Hitch and C.
The compound under test was suspended at the desired concentration in a 0.3% w/v aqueous solution of carboxymethylcellulose and administered orally in a volume of 2 ml/kg body weight. […] After administration of the sample, the blood pressure and heart beat of each animal were measured for 24 hours at 15 minute intervals.
For purposes of comparison, the same experiment was carried out with various concentrations of the known hypotensive agent, prazosin, in the form of its hydrochloride.
Δmax =Maximum change in blood pressure (mm/Hg) after administration of the compound under test;
Tmax =Time (in hours) after administration of the compound under test required for the blood pressure to obtain a maximum change;
T0.5 max =Time (in hours) after administration of the compound under test for the blood pressure to return to one-half of its maximum value.

[2] = background; cited from earlier work

Row | Structure (SMILES) | T0.5 max, time after administration for the blood pressure to return to one-half of its maximum value ([1]; dose 30 mg/kg oral) | Tmax, time after administration required for the blood pressure to obtain a maximum change ([1]; dose 30 mg/kg oral) | Δmax, maximum change in blood pressure after administration ([1]; dose 30 mg/kg oral) | Tmax, time after administration required for the blood pressure to obtain a maximum change ([1]; dose 3 mg/kg oral) | Δmax, maximum change in blood pressure after administration ([1]; dose 3 mg/kg oral) | T0.5 max, time after administration for the blood pressure to return to one-half of its maximum value ([1]; dose 3 mg/kg oral, 3 mg/kg) | T0.5 max, time after administration for the blood pressure to return to one-half of its maximum value ([1]; dose 30 mg/kg oral, 30 mg/kg) | Tmax, time after administration required for the blood pressure to obtain a maximum change ([1]; dose 30 mg/kg oral, 30 mg/kg) | Δmax, maximum change in blood pressure after administration ([1]; dose 30 mg/kg oral, 30 mg/kg) | T0.5 max, time after administration for the blood pressure to return to one-half of its maximum value ([1]; dose 3 mg/kg oral) | antihypertensive activity (in words) [2] | disappearance of hypotensive effect (in words) [2] | time to maximum hypotensive effect (in words) [2]
1 | CC=C(C)C(=O)N1CCN(c2nc(N)c3cc(OC)c(OC)cc3n2)CC1 [Compound No. 3, 4-Amino-2-[4-(2,3-dimethylacryloyl)-1-piperazinyl]-6,7-dimethoxyquinazoline] | 2 h | 30 min | -30 mmHg |  |  |  |  |  |  |  |  |  | 
2 | COc1cc2nc(N3CCN(C(=O)C=C(C)C)CC3)nc(N)c2cc1OC [Compound No. 4, 4-Amino-2-[4-(3,3-dimethylacryloyl)-1-piperazinyl]-6,7-dimethoxyquinazoline] | 3 h | 30 min | -30 mmHg |  |  |  |  |  |  |  |  |  | 
3 | CCC=CC(=O)N1CCN(c2nc(N)c3cc(OC)c(OC)cc3n2)CC1 [Compound No. 5, 4-Amino-6,7-dimethoxy-2-[4-(2-pentenoyl)-1-piperazinyl]quinazoline] |  |  |  | 30 min | -40 mmHg | 9 h | 11.5 h | 30 min | -50 mmHg |  |  |  | 
4 | C=CCCC(=O)N1CCN(c2nc(N)c3cc(OC)c(OC)cc3n2)CC1 [Compound No. 6, 4-Amino-6,7-dimethoxy-2-[4-(4-pentenoyl)-1-piperazinyl]quinazoline] | 13 h | 30 min | -65 mmHg | 30 min | -40 mmHg |  |  |  |  | 8 h |  |  | 
5 | CCC=CCC(=O)N1CCN(c2nc(N)c3cc(OC)c(OC)cc3n2)CC1 [Compound No. 7, 4-Amino-2-[4-(3-hexenoyl)-1-piperazinyl]-6,7-dimethoxyquinazoline] | 15 h | 30 min | -25 mmHg | 30 min | -20 mmHg |  |  |  |  | 7 h |  |  | 
6 | CCCC=CC(=O)N1CCN(c2nc(N)c3cc(OC)c(OC)cc3n2)CC1 [Compound No. 8, 4-Amino-2-[4-(2-hexenoyl)-1-piperazinyl]-6,7-dimethoxyquinazoline] | 7 h | 30 min | -40 mmHg | 30 min | -35 mmHg |  |  |  |  | 4.5 h |  |  | 
7 | COc1cc2nc(N3CCN(C(=O)c4ccco4)CC3)nc(N)c2cc1OC [prazosin hydrochloride, prazosin, reference compound] |  | 60 min | -50 mmHg | 30 min | -35 mmHg |  |  |  |  |  |  |  | 
8 | COc1cc2nc(N3CCN(C(=O)c4ccco4)CC3)nc(N)c2cc1OC [prazosin] |  |  |  |  |  |  |  |  |  |  | very useful antihypertensive activity | the effect tends also to diappear quickly | maximum hypotensive effect tends to be achieved very quickly
